Structures are written as SMILES.

The target in the assay is T1, Human Factor XIIa (Homo sapiens, UniProt P00748).
T1 construct: purchased Enzyme Research Laboratories
T1 sequence (P00748 373-615 limits assumed): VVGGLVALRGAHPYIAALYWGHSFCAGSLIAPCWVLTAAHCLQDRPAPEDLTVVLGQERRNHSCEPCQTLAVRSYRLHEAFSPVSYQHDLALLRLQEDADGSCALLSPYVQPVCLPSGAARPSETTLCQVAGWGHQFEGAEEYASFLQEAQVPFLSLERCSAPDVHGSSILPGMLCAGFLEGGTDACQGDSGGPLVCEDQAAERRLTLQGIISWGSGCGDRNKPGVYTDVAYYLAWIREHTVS
T1 sequence (P00748 20-372 partner limits assumed): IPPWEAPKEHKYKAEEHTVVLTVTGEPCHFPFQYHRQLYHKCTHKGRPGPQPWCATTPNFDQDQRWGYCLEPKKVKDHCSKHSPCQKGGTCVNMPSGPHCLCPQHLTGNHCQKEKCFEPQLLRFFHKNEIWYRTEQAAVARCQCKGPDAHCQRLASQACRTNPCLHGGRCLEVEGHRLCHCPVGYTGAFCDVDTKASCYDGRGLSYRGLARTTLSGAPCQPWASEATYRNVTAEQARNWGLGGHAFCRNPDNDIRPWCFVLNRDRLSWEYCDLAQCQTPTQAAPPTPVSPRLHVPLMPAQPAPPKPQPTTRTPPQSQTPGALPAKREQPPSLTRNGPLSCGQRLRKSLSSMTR
Put plainly: Determination of Factor XIIa inhibitory activity in vitro (fluorogenic substrate H-DPro-Phe-Arg-AFC). It is filed as biochemical. The note with it: Human Factor XIIa (Enzyme Research Laboratories), 25° C., read-out: Human FXIIa IC50. The protocol:
Determination of the % Inhibition for FXIIa
Factor XIIa inhibitory activity in vitro was determined using standard published methods (see e.g. Shori et al., Biochem. Pharmacol., 1992, 43, 1209; Baeriswyl et al., ACS Chem. Biol., 2015, 10 (8) 1861; Bouckaert et al., European Journal of Medicinal Chemistry 110 (2016) 181). Human Factor XIIa (Enzyme Research Laboratories) was incubated at 25° C. with the fluorogenic substrate H-DPro-Phe-Arg-AFC and various concentrations of the test compound. Residual enzyme activity (initial rate of reaction) was determined by measuring the […] and the IC50 value for the test compound was determined.
Broadly, the IC50 is the concentration that inhibits the measured activity by half. As for `CN(C)CCNc1ncc(Cl)cc1C(=O)NCc1ccc2c(N)nccc2c1` [Example 1.09], the IC50 was in the range of 1 to 3 µM.
On to `CN1CCCN(c2ncc(Cl)cc2C(=O)NCc2ccc3c(N)nccc3c2)CC1` [Example 16.01], for which the IC50 was in the range of 10 to 40 µM.
Under `Nc1nccc2cc(CNC(=O)c3cncc(CN4CCNCC4)c3)ccc12` [Example 29.04] stands 10 to 40 µM.
The result for `COc1ccccc1Oc1ncc(C(=O)NCc2ccc3c(N)nccc3c2)cc1Cl` [Example 13.12] reads 10 to 40 µM.
With `Nc1nccc2cc(CNC(=O)c3cc(Cl)cnc3OCCCN3CCCCC3)ccc12` [Example 22.11], the IC50 lay within 10 to 40 µM.
The result for `CN(C)CCOc1ccc(CNc2ncc(C(=O)NCc3ccc4c(N)nccc4c3)cc2Cl)cc1` [Example 11.23, N-((1-aminoisoquinolin-6-yl)methyl)-5-chloro-6-((4-(2-(dimethylamino)ethoxy)benzyl)amino)nicotinamide] reads 3 to 10 µM; that for `CN(C)c1cccc(Nc2ncc(Cl)cc2C(=O)NCc2ccc3c(N)nccc3c2)c1` [Example 1.40], 10 to 40 µM; that for `COc1ccc(CNc2ncc(Cl)cc2C(=O)NCc2ccc3c(N)nccc3c2)cc1` [Example 1.05], 10 to 40 µM.
Under `CN(C)c1ccc(CNc2ncc(C(=O)NCc3ccc4c(N)nccc4c3)cc2Cl)cc1` [Example 11.02] stands 3 to 10 µM; under `COc1ccc(CN(C)c2ncc(C(=O)NCc3ccc4c(N)nccc4c3)cc2Cl)cc1` [Example 8.02], 10 to 40 µM.
Under `CN1CCN(CCCNc2ncc(Cl)cc2C(=O)NCc2ccc3c(N)nccc3c2)CC1` [Example 1.36] stands 1 to 3 µM; under `CN(C(=O)C(C)(C)C)c1ccc(Oc2ncc(Cl)cc2C(=O)NCc2ccc3c(N)nccc3c2)cc1` [Example 22.04], 10 to 40 µM; under `Nc1nccc2cc(CNC(=O)c3cncc(Br)c3)ccc12` [Example 19.02, N-((1-aminoisoquinolin-6-yl)methyl)-5-bromonicotinamide], 10 to 40 µM.
For the compound `CN(c1cccc(Cl)c1)c1ncc(Cl)cc1C(=O)NCc1ccc2c(N)nccc2c1` [Example 28.06], the IC50 lay within 10 to 40 µM.
Under `CC(C)N(CCNc1ncc(Cl)cc1C(=O)NCc1ccc2c(N)nccc2c1)C(C)C` [Example 1.25] stands 0.3 to 1 µM; under `Nc1nccc2cc(CNC(=O)c3cc(Cl)cnc3NCCn3ccnc3)ccc12` [Example 1.16], 3 to 10 µM; under `CC(C)N1CCN(c2ncc(C(=O)NCc3ccc4c(N)nccc4c3)cc2Cl)CC1` [Example 8.03], 10 to 40 µM.
Turning to `Nc1nccc2cc(CNC(=O)c3cc(Cl)cnc3OCCN3CCCCC3)ccc12` [Example 22.06], the IC50 fell in the range of 10 to 40 µM.
The result for `COc1ccc(Oc2ncc(C(=O)NCc3ccc4c(N)nccc4c3)cc2Cl)cc1` [Example 13.02] reads 10 to 40 µM; that for `Cc1cc(CN)cc(C)c1CNC(=O)c1nccnc1NCC1CCN(C)CC1` [Example 33.23], 10 to 40 µM; that for `Nc1nccc2cc(CNC(=O)c3cc(Cl)cnc3NCCN3CCOCC3)ccc12` [Example 1.11], 3 to 10 µM.
For `COc1cccc(Oc2ncc(C(=O)NCc3ccc4c(N)nccc4c3)cc2Cl)c1` [Example 13.11], the IC50 was in the range of 10 to 40 µM.
The result for `CN(C)CCOc1ncc(Cl)cc1C(=O)NCc1ccc2c(N)nccc2c1` [Example 22.09] reads 10 to 40 µM.
Under `Nc1nccc2cc(CNC(=O)c3cc(Cl)cnc3Oc3ccc(N4CCCC4=O)cc3)ccc12` [Example 22.01, N-((1-aminoisoquinolin-6-yl)methyl)-5-chloro-2-(4-(2-oxopyrrolidin-1-yl)phenoxy)nicotinamide] stands 3 to 10 µM.
The result for `Nc1nccc2cc(CNC(=O)c3cnc(NC4CCCC4)c(Cl)c3)ccc12` [Example 11.01, N-((1-aminoisoquinolin-6-yl)methyl)-5-chloro-6-(cyclopentylamino)nicotinamide] reads 10 to 40 µM.
Take `Nc1nccc2cc(CNC(=O)c3cc(Cl)cnc3NCc3cccc(N4CCCC4=O)c3)ccc12` [Example 1.33]: the IC50 was 10 to 40 µM.
As for `Nc1nccc2cc(CNC(=O)c3cnc(Oc4ccc(Cl)cc4)c(Cl)c3)ccc12` [Example 13.01], the IC50 lay in the range of 10 to 40 µM.
The result for `Nc1nccc2cc(CNC(=O)c3cc(Cl)cnc3NCc3cccnc3)ccc12` [Example 1.24] reads 3 to 10 µM; that for `Nc1nccc2cc(CNC(=O)c3cc(Cl)cnc3NCc3ccccc3)ccc12` [Example 1.02], 10 to 40 µM; that for `Nc1nccc2cc(CNC(=O)c3cnc(N4CC(O)C4)c(Cl)c3)ccc12` [Example 8.04], 10 to 40 µM.
The result for `Nc1nccc2cc(CNC(=O)c3cnc(NCC4CCOCC4)c(Cl)c3)ccc12` [Example 11.03] reads 3 to 10 µM; that for `N#Cc1cccc(Oc2ncc(C(=O)NCc3ccc4c(N)nccc4c3)cc2Cl)c1` [Example 13.08], 10 to 40 µM.
The result for `Nc1nccc2cc(CNC(=O)c3cnc(NCCN4CCCCC4)c(Cl)c3)ccc12` [Example 11.14] reads 3 to 10 µM; that for `Nc1nccc2cc(CNC(=O)c3cnc(Cl)c(Cl)c3)ccc12` [Example 19.06, N-(1-Amino-isoquinolin-6-ylmethyl)-5,6-dichloro-nicotinamide], 3 to 10 µM.
As for `CN(c1ccccc1)c1ncc(Cl)cc1C(=O)NCc1ccc2c(N)nccc2c1` [Example 28.05, N-((1-aminoisoquinolin-6-yl)methyl)-5-chloro-2-(methyl(phenyl)amino)nicotinamide], the IC50 was in the range of 10 to 40 µM.
The result for `CN1CCCN(c2ncc(C(=O)NCc3ccc4c(N)nccc4c3)cc2Cl)CC1` [Example 8.01] reads 10 to 40 µM; that for `Nc1nccc2cc(CNC(=O)c3cc(Cl)cnc3Oc3cccc(N4CCCC4=O)c3)ccc12` [Example 22.05], 10 to 40 µM.
Take `Nc1nccc2cc(CNC(=O)c3cc(Cl)cnc3NCCCOc3ccccc3)ccc12` [Example 1.15]: the IC50 was in the range of 10 to 40 µM.
Consider `Nc1nccc2cc(CNC(=O)c3cc(Cl)cnc3Nc3ccccc3)ccc12` [Example 1.04], for which the 50% inhibitory concentration (IC50) lay within 10 to 40 µM.
The result for `N#Cc1ccc(Oc2ncc(C(=O)NCc3ccc4c(N)nccc4c3)cc2Cl)cc1` [Example 13.07] reads 10 to 40 µM; that for `CS(=O)(=O)c1ccc(Oc2ncc(C(=O)NCc3ccc4c(N)nccc4c3)cc2Cl)cc1` [Example 13.15], 10 to 40 µM.
Under `CN(c1ncc(C(=O)NCc2ccc3c(N)nccc3c2)cc1Cl)C1CCOCC1` [Example 8.07] stands 3 to 10 µM.
As to `Nc1nccc2cc(CNC(=O)c3cnc(Oc4cccc(N5CCCC5=O)c4)c(Cl)c3)ccc12` [Example 13.14], the IC50 was 10 to 40 µM.
On to `CN(C)c1cccc(CNc2ncc(Cl)cc2C(=O)NCc2ccc3c(N)nccc3c2)c1` [Example 1.07], for which the IC50 is 10 to 40 µM.
The result for `CN1CCCc2cc(CNc3ncc(Cl)cc3C(=O)NCc3ccc4c(N)nccc4c3)ccc21` [Example 1.22] reads 3 to 10 µM.
Under `CN(C)CCCOc1cccc(CN(C)c2ncc(Cl)cc2C(=O)NCc2ccc3c(N)nccc3c2)c1` [Example 28.03, N-((1-aminoisoquinolin-6-yl)methyl)-5-chloro-2-((3-(3-(dimethylamino)propoxy)benzyl)(methyl)amino)nicotinamide] stands 3 to 10 µM; under `Nc1nccc2cc(CNC(=O)c3cc(Cl)cnc3Oc3ccc(N4CCNCC4)cc3)ccc12` [Example 22.12], 3 to 10 µM.
Turning to `COc1ccc(Nc2ncc(Cl)cc2C(=O)NCc2ccc3c(N)nccc3c2)cc1` [Example 1.37], the concentration for half-maximal inhibition (IC50) fell in the range of 10 to 40 µM.
The result for `Nc1nccc2cc(CNC(=O)c3cc(Cl)cnc3NCC3CCN(Cc4ccccc4)CC3)ccc12` [Example 1.31] reads 1 to 3 µM.
Turning to `Nc1nccc2cc(CNC(=O)c3cc(Cl)cnc3NCC3CCN(c4ccncc4)CC3)ccc12` [Example 1.28], the IC50 lay in the range of 0.3 to 1 µM.
Regarding `CN1CCN(Cc2cc(Cl)cc(C(=O)NCc3ccc4c(N)nccc4c3)c2)CC1` [Example 29.10], the IC50 lay in the range of 3 to 10 µM.
On to `Nc1nccc2cc(CNC(=O)c3cnc(OCc4ccccn4)c(Cl)c3)ccc12` [Example 13.20], for which the IC50 was 10 to 40 µM.
The result for `CN(c1ncc(Cl)cc1C(=O)NCc1ccc2c(N)nccc2c1)C1CCOCC1` [Example 28.04, N-((1-aminoisoquinolin-6-yl)methyl)-5-chloro-2-(methyl(tetra hydro-2H-pyran-4-yl)amino)nicotinamide] reads 10 to 40 µM.
Take `CC(=O)NCCCNc1ncc(Cl)cc1C(=O)NCc1ccc2c(N)nccc2c1` [Example 1.20]: the IC50 lay within 3 to 10 µM.
The result for `CN1CCC(CNc2ncc(C(=O)NCc3ccc4c(N)nccc4c3)cc2Cl)CC1` [Example 11.16] reads 3 to 10 µM; that for `Nc1nccc2cc(CNC(=O)c3cnc(OCc4cccnc4)c(Cl)c3)ccc12` [Example 13.04], 10 to 40 µM; that for `CN(C)CCCOc1cccc(CNc2ncc(Cl)cc2C(=O)NCc2ccc3c(N)nccc3c2)c1` [Example 11.07], 1 to 3 µM.
